Patent publication US10604554B2, “Double-acylated GLP-1 derivatives” (Novo Nordisk A/S, priority 2012, dated 2020)

How the values were obtained:
human GLP-1 receptor [1] = molecular target: T1, human GLP-1 receptor (Homo sapiens, UniProt P43220); test: In vitro potency (CRE luciferase; whole cells); assay type: cell-based; design: EC50/pM (ratio 1% HSA/0% HSA): unit not given here; conditions: for EC50: BHK cells
T1 construct: expressed in transfected cells; host or cells: BHK cells, clone FCW467-12A/KZ10-1 (parent line BHKTS13), further transfected with CRE luciferase
Experimental: The purpose of this example is to test the activity, or potency, of the GLP-1 derivatives in vitro. The in vitro potency is the measure of human GLP-1 receptor activation in a whole cell assay.
In vitro potency was determined by measuring the response of human GLP-1 receptor in a reporter gene assay. The assay was performed in a stably transfected BHK cell line that expresses the human GLP-1 receptor and contains the DNA for the cAMP response element (CRE) coupled to a promoter and the gene for firefly luciferase (CRE luciferase). When the human GLP-1 receptor was activated it results in the production of cAMP, which in turn results in the luciferase protein being expressed. When assay incubation was completed the luciferase substrate (luciferin) was added and the enzyme converts luciferin to oxyluciferin and produces bioluminescence. The luminescence was measured and was the readout for the assay.
An increase of the in vitro potency, EC50 value, in the presence of serum albumin indicates an affinity to serum albumin and represents a method to predict a protracted pharmacokinetic profile of the test substance in animal models.
The cells were cultured at 5% CO2 in cell culture medium. They were aliquoted and stored in liquid nitrogen. Before each assay an aliquot was taken up and washed twice in PBS before being suspended at the desired concentration in the assay specific buffer.
The following chemicals were used in the assay: Pluronic F-68 (10%) (Gibco 2404), human serum albumin (HSA) (Sigma A9511), ovalbumin (Sigma A5503), DMEM w/o phenol red (Gibco 11880-028), 1 M Hepes (Gibco 15630), Glutamax 100× (Gibco 35050) and steadylite plus (PerkinElmer 6016757).
1) Cell stocks were thawed in a 37° C. water bath.
2) Cells were washed three times in PBS.
3) The cells were counted and adjusted to 5×10^3 cells/50 μl (1×10^5 cells/ml) in assay medium. A 50 μl aliquot of cells was transferred to each well in the assay plate.
4) Stocks of the test compounds and reference compounds were diluted to a concentration of 0.2 μM in 0% assay buffer for the 0% HSA CRE luciferase assay and 1% assay buffer for the HSA CRE luciferase assay. […] 5) A 50 μl aliquot of compound or blank was transferred in triplicate from the dilution plate to the assay plate. […] 7) The assay plate was removed from the incubator and allowed to stand at room temperature for 15 min. 8) A 100 μl aliquot of steadylite plus reagent was added to each well of the assay plate (reagent was light sensitive). 9) Each assay plate was covered with aluminum foil to protect it from light and shaken for 30 min at room temperature. 10) Each assay plate was read in a Packard TopCount NXT instrument. Calculations and Results
The data from the TopCount instrument were transferred to GraphPad Prism software. The software averages the values for each replicate and performs a non-linear regression.

human GLP-1 receptor [2] = molecular target: T1, human GLP-1 receptor; test: GLP-1 receptor binding (SPA, displacement of 125I-GLP-1)
Experimental: The purpose of this experiment is to investigate the binding to the GLP-1 receptor of the GLP-1 derivatives, and how the binding is potentially influenced by the presence of albumin. This is done in an in vitro experiment as described below.
In order to test the binding of the derivatives to albumin, the assay was performed with a low concentration of albumin (0.001%—corresponding to the residual amount thereof in the tracer), as well as with a high concentration of albumin (2.0% added). A shift in the binding affinity, IC50, is an indication that the peptide in question binds to albumin, and thereby a prediction of a potential protracted pharmacokinetic profile of the peptide in question in animal models.
Species (in vitro): Hamster
Biological End Point: Receptor Binding
A stable transfected cell line and a high expressing clone were selected for screening. The cells were grown at 5% CO2 in DMEM, 10% FCS, 1% Pen/Strep (Penicillin/Streptomycin) and 1.0 mg/ml of the selection marker G418.
The cells (approx. 80% confluence) were washed twice in PBS and harvested with Versene (aqueous solution of the tetrasodium salt of ethylenediaminetetraacetic acid), following which they were separated by centrifugation at 1000 rpm for 5 min. The cells/cell pellet must be kept on ice to the extent possible in the subsequent steps. The cell pellet was homogenised with Ultrathurrax for 20-30 seconds in a suitable amount of Buffer 1 (depending on the amount of cells, but e.g. 10 ml). The homogenate was centrifuged at 20000 rpm for 15 minutes. The pellet was resuspended (homogenised) in 10 ml Buffer 2 and re-centrifuged. This step was repeated once more. The resulting pellet was resuspended in Buffer 2, and the protein concentration was determined. The membranes were stored at minus 80° C.
Buffer 1:20 mM Na-HEPES+10 mM EDTA, pH 7.4
Buffer 2:20 mM Na-HEPES+0.1 mM EDTA, pH 7.4
Test compounds, membranes, SPA-particles and [^125I]-GLP-1(7-36)NH2 were diluted in assay buffer. 50 ul (micro liter) HSA (“high albumin” experiment containing 2% HSA), or buffer (“low albumin” experiment containing 0.001% HSA) was added to Optiplate, and 25 ul of test compounds were added. 5-10 ug membrane protein/sample was added (50 ul) corresponding to 0.1-0.2 mg protein/ml (to be preferably optimised for each membrane preparation). SPA-particles (Wheatgerm agglutinin SPA beads, Perkin Elmer, # RPNQ0001) were added in an amount of 0.5 mg/well (50 ul). The incubation was started with [^125I]-GLP-1]-(7-36)NH2 (final concentration 0.06 nM corresponding to 49.880 DPM, 25 ul). The plates were sealed with PlateSealer and incubated for 120 minutes at 30° C. while shaking. The plates were centrifuged (1500 rpm, 10 min) and counted in Topcounter.

[3] = In vitro potency (CRE luciferase) EC50 (0% HSA), 0% HSA
[4] = In vitro potency (CRE luciferase) EC50 (1% HSA), 1% HSA
[5] = Receptor binding affinity IC50 (high HSA), 2.0% HSA (high albumin)
[6] = Receptor binding affinity IC50 (low HSA), 0.001% HSA (low albumin)

T1 sequence (P43220 24-463): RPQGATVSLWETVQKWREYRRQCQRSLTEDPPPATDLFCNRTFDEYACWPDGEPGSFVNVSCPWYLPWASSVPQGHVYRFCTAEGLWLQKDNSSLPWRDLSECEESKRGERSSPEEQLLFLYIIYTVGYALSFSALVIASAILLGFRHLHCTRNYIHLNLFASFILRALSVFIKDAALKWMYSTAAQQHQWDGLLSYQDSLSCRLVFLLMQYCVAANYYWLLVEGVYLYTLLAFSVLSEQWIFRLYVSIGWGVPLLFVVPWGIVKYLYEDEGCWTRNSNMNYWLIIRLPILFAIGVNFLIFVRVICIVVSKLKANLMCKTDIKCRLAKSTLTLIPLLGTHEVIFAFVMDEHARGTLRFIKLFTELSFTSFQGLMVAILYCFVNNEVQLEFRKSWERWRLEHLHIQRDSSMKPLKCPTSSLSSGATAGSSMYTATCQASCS

Structure (SMILES) | EC50 (human GLP-1 receptor [1]; [3]) | EC50 (human GLP-1 receptor [1]; [4]) | EC50/pM (ratio 1% HSA/0% HSA) (human GLP-1 receptor [1]; ratio of EC50 at 1% HSA to EC50 at 0% HSA) | IC50 (human GLP-1 receptor [2]; [5]) | IC50 (human GLP-1 receptor [2]; [6])
CC[C@H](C)[C@H](NC(=O)[C@H](Cc1ccccc1)NC(=O)[C@H](CCC(=O)O)NC(=O)[C@H](CCCCNC(=O)[C@@H](N)CCCCNC(=O)[C@@H](N)CCCCNC(=O)COCCOCCNC(=O)CC[C@H](NC(=O)CCCCCCCCCCOc1ccc(C(=O)O)cc1)C(=O)O)NC(=O)[C@H](C)NC(=O)[C@H](C)NC(=O)[C@H](CCC(N)=O)NC(=O)CNC(=O)[C@H](CCC(=O)O)NC(=O)[C@H](CC(C)C)NC(=O)[C@H](Cc1ccc(O)cc1)NC(=O)[C@H](CO)NC(=O)[C@H](CO)NC(=O)[C@@H](NC(=O)[C@H](CC(=O)O)NC(=O)[C@H](CO)NC(=O)[C@@H](NC(=O)[C@H](Cc1ccccc1)NC(=O)[C@@H](NC(=O)CNC(=O)[C@H](CCC(=O)O)NC(=O)C(C)(C)NC(=O)[C@@H](N)Cc1c[nH]cn1)[C@@H](C)O)[C@@H](C)O)C(C)C)C(=O)N[C@@H](C)C(=O)N[C@@H](Cc1c[nH]c2ccccc12)C(=O)N[C@@H](CC(C)C)C(=O)N[C@H](C(=O)N[C@@H](CCCNC(=N)N)C(=O)NCC(=O)N[C@@H](CCCNC(=N)N)C(=O)N[C@@H](CCCCNC(=O)[C@@H](N)CCCCNC(=O)[C@@H](N)CCCCNC(=O)COCCOCCNC(=O)CC[C@H](NC(=O)CCCCCCCCCCOc1ccc(C(=O)O)cc1)C(=O)O)C(=O)O)C(C)C [Example 34, N^ε26-[(2S)-2-amino-6-[[(2S)-2-amino-6-[[2-[2-[2-[[(4S)-4-carboxy-4-[11-(4-carboxyphenoxy)undecanoylamino]butanoyl]amino]ethoxy]ethoxy]acetyl]amino]hexanoyl]amino]hexanoyl], N^ε37-[(2S)-2-amino-6-[[(2S)-2-amino-6-[[2-[2-[2-[[(4S)-4-carboxy-4-[11-(4-carboxyphenoxy)undecanoylamino]butanoyl]amino]ethoxy]ethoxy]acetyl]amino]hexanoyl]amino]hexanoyl]-[Aib^8,Arg^34,Lys^37]-GLP-1-(7-37)-peptide] | 0.0079 nM | 0.059 nM | 9.1 | 45 nM | 0.12 nM
CC[C@H](C)[C@H](NC(=O)[C@H](Cc1ccccc1)NC(=O)[C@H](CCC(=O)O)NC(=O)[C@H](CCCCNC(=O)[C@@H](N)CCCCNC(=O)[C@@H](N)CCCCNC(=O)[C@H](CO)NC(=O)[C@H](CO)NC(=O)CC[C@H](NC(=O)CCCCCCCCCCOc1ccc(C(=O)O)cc1)C(=O)O)NC(=O)[C@H](C)NC(=O)[C@H](C)NC(=O)[C@H](CCC(N)=O)NC(=O)CNC(=O)[C@H](CCC(=O)O)NC(=O)[C@H](CC(C)C)NC(=O)[C@H](Cc1ccc(O)cc1)NC(=O)[C@H](CO)NC(=O)[C@H](CO)NC(=O)[C@@H](NC(=O)[C@H](CC(=O)O)NC(=O)[C@H](CO)NC(=O)[C@@H](NC(=O)[C@H](Cc1ccccc1)NC(=O)[C@@H](NC(=O)CNC(=O)[C@H](CCC(=O)O)NC(=O)C(C)(C)NC(=O)[C@@H](N)Cc1c[nH]cn1)[C@@H](C)O)[C@@H](C)O)C(C)C)C(=O)N[C@@H](C)C(=O)N[C@@H](Cc1c[nH]c2ccccc12)C(=O)N[C@@H](CC(C)C)C(=O)N[C@H](C(=O)N[C@@H](CCCNC(=N)N)C(=O)NCC(=O)N[C@@H](CCCNC(=N)N)C(=O)N[C@@H](CCCCNC(=O)[C@@H](N)CCCCNC(=O)[C@@H](N)CCCCNC(=O)[C@H](CO)NC(=O)[C@H](CO)NC(=O)CC[C@H](NC(=O)CCCCCCCCCCOc1ccc(C(=O)O)cc1)C(=O)O)C(=O)O)C(C)C [Example 35] | 0.0055 nM | – | – | 36 nM | 0.08 nM
CC[C@H](C)[C@H](NC(=O)[C@H](Cc1ccccc1)NC(=O)[C@H](CCC(=O)O)NC(=O)[C@H](CCCCNC(=O)[C@H](CCCCNC(=O)[C@H](CCCCNC(=O)CC[C@H](NC(=O)CCCCCCCCCCOc1ccc(C(=O)O)cc1)C(=O)O)N(C)C)N(C)C)NC(=O)[C@H](C)NC(=O)[C@H](C)NC(=O)[C@H](CCC(N)=O)NC(=O)CNC(=O)[C@H](CCC(=O)O)NC(=O)[C@H](CC(C)C)NC(=O)[C@H](Cc1ccc(O)cc1)NC(=O)[C@H](CO)NC(=O)[C@H](CO)NC(=O)[C@@H](NC(=O)[C@H](CC(=O)O)NC(=O)[C@H](CO)NC(=O)[C@@H](NC(=O)[C@H](Cc1ccccc1)NC(=O)[C@@H](NC(=O)CNC(=O)[C@H](CCC(=O)O)NC(=O)C(C)(C)NC(=O)[C@@H](N)Cc1c[nH]cn1)[C@@H](C)O)[C@@H](C)O)C(C)C)C(=O)N[C@@H](C)C(=O)N[C@@H](Cc1c[nH]c2ccccc12)C(=O)N[C@@H](CC(C)C)C(=O)N[C@H](C(=O)N[C@@H](CCCNC(=N)N)C(=O)NCC(=O)N[C@@H](CCCNC(=N)N)C(=O)N[C@@H](CCCCNC(=O)[C@H](CCCCNC(=O)[C@H](CCCCNC(=O)CC[C@H](NC(=O)CCCCCCCCCCOc1ccc(C(=O)O)cc1)C(=O)O)N(C)C)N(C)C)C(=O)O)C(C)C [Example 37, N^ε26-[(2S)-6-[[(2S)-6-[[(4S)-4-carboxy-4-[11-(4-carboxyphenoxy)undecanoylamino]butanoyl]amino]-2-(dimethylamino)hexanoyl]amino]-2-(dimethylamino)hexanoyl], N^ε37-[(2S)-6-[[(2S)-6-[[(4S)-4-carboxy-4-[11-(4-carboxyphenoxy)undecanoylamino]butanoyl]amino]-2-(dimethylamino)hexanoyl]amino]-2-(dimethylamino)hexanoyl]-[Aib^8,Arg^34,Lys^37]-GLP-1-(7-37)-peptide] | – | 0.093 nM | – | 24 nM | –
